# Measured values as given in US8349846B2, “Fused pyrimidine derivatives as TRPV3 modulators” (Glenmark Pharmaceuticals, S.A., priority 2008, dated 2013).
# Structures can show the parent of a compound that is named as a salt.
# Biological target: T1, Human TRPV3 (Homo sapiens, UniProt Q8NET8)
# T1 construct: expressed in transfected cells; host or cells: CHO cells (selected with G-418)
# T1 sequence (Q8NET8 1-790): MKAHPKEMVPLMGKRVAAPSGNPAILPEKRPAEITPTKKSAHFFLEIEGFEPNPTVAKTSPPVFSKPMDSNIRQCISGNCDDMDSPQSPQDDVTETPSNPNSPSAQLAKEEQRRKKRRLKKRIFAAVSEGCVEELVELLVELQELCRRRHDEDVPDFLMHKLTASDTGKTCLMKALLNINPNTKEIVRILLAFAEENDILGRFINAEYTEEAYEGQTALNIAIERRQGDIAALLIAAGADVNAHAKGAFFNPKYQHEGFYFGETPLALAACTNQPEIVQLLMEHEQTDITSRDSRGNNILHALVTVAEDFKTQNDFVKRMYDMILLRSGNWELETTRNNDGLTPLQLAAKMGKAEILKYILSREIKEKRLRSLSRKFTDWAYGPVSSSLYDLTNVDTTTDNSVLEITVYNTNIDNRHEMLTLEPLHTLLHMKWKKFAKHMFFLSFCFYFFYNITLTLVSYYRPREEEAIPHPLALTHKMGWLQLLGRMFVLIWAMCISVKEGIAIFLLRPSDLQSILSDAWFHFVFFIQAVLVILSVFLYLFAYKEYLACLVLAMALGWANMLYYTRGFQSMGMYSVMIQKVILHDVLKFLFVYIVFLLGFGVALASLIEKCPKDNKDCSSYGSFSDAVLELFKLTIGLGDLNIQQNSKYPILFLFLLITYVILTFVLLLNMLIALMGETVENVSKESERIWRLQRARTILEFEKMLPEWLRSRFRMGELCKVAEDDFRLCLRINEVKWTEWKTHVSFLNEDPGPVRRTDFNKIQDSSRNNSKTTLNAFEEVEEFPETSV
# Assay: Screening for TRPV3 antagonist using the 45Calcium uptake assay (inhibition of 2-APB induced cellular uptake of radioactive calcium)
# Type: cell-based
# Conditions: Human TRPV3 expressing CHO cells, 2-APB 500 μM; for inhibition at 1 µM / inhibition at 10 µM: CHO; for inhibition at 1 µM: 1.0 μM test compound, read-out: Percentage inhibition at 1.0 μM; for inhibition at 10 µM: 10.0 μM test compound, read-out: Percentage inhibition at 10.0 μM
# Text: The illustrative examples of the present invention are screened for TRPV3 activity according to a modified procedure described in Tóth, A., Kedei, N., Wang, Y. and Blumberg, P. M. Life Sciences (2003), 73, 487-498. The screening of the compounds can be carried out by other methods and procedures known to a person skilled in the art. Such screening methods may be found in (a) Hu, H.-Z. et al. J. Biol. Chem. (2004), 279, 35741-35747; (b) Smith, G. D. et al. Nature (2002), 418, 186-190; (c) Peier, A. M. et al. Science (2002), 296, 2046-2049.
# Screening for TRPV3 Antagonist Using the ^45Calcium Uptake Assay:
# The inhibition of TRPV3 receptor activation was followed as inhibition of 2-aminoethxydiphenylborate (2-APB) induced cellular uptake of radioactive calcium. Test compounds were dissolved in dimethyl sulfoxide (DMSO) to prepare 20 mM stock solution and then diluted using plain medium with DMEM/F-12 containing 1.8 mM CaCl2 to get desired concentration. Final concentration of DMSO in the reaction was 0.5% (v/v). Human TRPV3 expressing CHO cells were grown in DMEM/F-12 medium with 10% FBS, 1% penicillin-streptomycin solution, 400 μg/ml of G-418. Cells were seeded 24 h prior to the assay in 96 well plates so as to get ˜50,000 cells per well on the day of experiment. Cells were treated with test compounds for 10 minutes followed by addition of 2-APB at a final concentration of 500 μM and 5 μCi/ml ^45Ca^+2 for 4 minutes. Cells were washed and lysed using buffer containing 1% Triton X-100, 0.1% deoxycholate and 0.1% SDS. Radioactivity in the lysate was measured in Packardt Top count after addition of liquid scintillant. Concentration response curves were plotted as a % of maximal response obtained in the absence of test antagonist. IC50 value was calculated from concentration response curve by nonlinear regression analysis using GraphPad PRISM software.
# Percentage inhibition at concentrations of 1.0 μM and 10.0 μM are given in the table along with IC50 (nM) values for selected examples.
SMILES,inhibition at 1 µM,inhibition at 10 µM,IC50
"COc1cccc(/C=C/c2nc3ccccn3c(=O)c2-c2ccc(C(F)(F)F)cc2)c1OCCN(C)C [Example 15, 2-[(E)-2-{2-[2-(Dimethylamino)ethoxy]-3-methoxyphenyl}vinyl]-3-(4-trifluoromethylphenyl)-4H-pyrido[1,2-a]pyrimidin-4-one hydrochloride]",0%,31.7%,–
"COc1cccc(/C=C/c2nc3ccccn3c(=O)c2-c2ccc3ncccc3c2)c1OC1CCCC1 [Example 39, 2-[(E)-2-(2-Cyclopentyloxy-3-methoxy)phenylvinyl]-3-quinolin-6-yl-4H-pyrido[1,2-a]pyrimidin-4-one]",84.6%,96.1%,< 500 nM
"O=c1c(-c2ccc(C(F)(F)F)cc2)c(/C=C/c2cccc3c2OCO3)nc2ccccn12 [Example 4, 2-[(E)-2-(1,3-Benzodioxol-4-yl)vinyl]-3-[4-(trifluoromethyl)phenyl]-4H-pyrido[1,2-a]pyrimidin-4-one]",25.3%,74%,–
"COc1cccc(/C=C/c2nc3ccccn3c(=O)c2-c2ccc(C(C)=O)cc2)c1OC1CCCC1 [Example 33, 3-(4-Acetylphenyl)-2-[(E)-2-(2-cyclopentyloxy-3-methoxy)phenylvinyl]-4H-pyrido[1,2-a]pyrimidin-4-one]",78%,94.3%,< 500 nM
COc1cccc(/C=C/c2nc3ccc(Cl)cn3c(=O)c2-c2ccc(C#N)cc2)c1OCC1CC1 [Example 42],0%,96.8%,–
CCCCOc1c(/C=C/c2nc3ccccn3c(=O)c2-c2ccc(C(F)(F)F)cc2)cccc1OC [Example 8],76.3%,89.7%,–
"COc1cccc(-c2c(/C=C/c3cccc(OC)c3OC3CCCC3)nc3ccccn3c2=O)c1 [Example 26, 2-{(E)-2-[(2-Cyclopentyloxy-3-methoxy)phenyl]vinyl}-3-(3-methoxy)phenyl-4H-pyrido-[1,2-a]pyrimidin-4-one]",48%,69.3%,–
"COc1cccc(/C=C/c2nc3ccccn3c(=O)c2-c2ccc([N+](=O)[O-])cc2)c1OC1CCCC1 [Example 30, 2-{(E)-2-[(2-Cyclopentyloxy)-3-methoxyphenyl]vinyl}-3-(4-nitro)phenyl-4H-pyrido[1,2-a]pyrimidin-4-one]",52%,76.4%,–
CCCOc1c(/C=C/c2nc3ccccn3c(=O)c2-c2ccc(C#N)cc2)cccc1OC [Example 7],77.9%,98.9%,–
"COc1cccc(/C=C/c2nc3ccccn3c(=O)c2-c2ccc(SC)cc2)c1OC1CCCC1 [Example 34, 2-{(E)-2-[(2-Cyclopentyloxy-3-methoxy)phenyl]vinyl}-3-(4-thiomethyl)phenyl-4H-pyrido[1,2-a]pyrimidin-4-one]",36.8%,51.3%,–
"COc1cccc(/C=C/c2nc3ccccn3c(=O)c2-c2ccccc2)c1OC1CCCC1 [Example 20, 2-{(E)-2-[2-(Cyclopentyloxy)-3-methoxyphenyl]vinyl}-3-phenyl-4H-pyrido[1,2-a]-pyrimidin-4-one]",45.9%,76.7%,1000 to 2500 nM
"COc1cccc(/C=C/c2nc3ccccn3c(=O)c2-c2ccc(C(=O)O)cc2)c1OC1CCCC1 [Example 29, 4-{4-Oxo-2-[(E)-2-(2-cyclopentyloxy-3-methoxy)phenylvinyl]-4H-pyrido[1,2-a]pyrimidin-3-yl}benzoic acid]",0%,0.2%,–
"COc1cccc(/C=C/c2nc3c(C)cccn3c(=O)c2-c2ccc(C(F)(F)F)cc2)c1OC1CCCC1 [Example 40, 2-{(E)-2-[(2-Cyclopentyloxy-3-methoxy)phenyl]vinyl}-9-methyl-3-(4-trifluoromethyl)phenyl-4H-pyrido[1,2-a]pyrimidin-4-one]",23.1%,18.7%,–
"COc1cccc(/C=C/c2nc3ccccn3c(=O)c2-c2cc(F)cc(F)c2)c1OC1CCCC1 [Example 21, 2-{(E)-2-[2-(Cyclopentyloxy-3-methoxy)phenyl]vinyl}-3-(3,5-difluoro) phenyl-4H-pyrido[1,2-a]pyrimidin-4-one]",27.2%,39.3%,–
COc1cccc(/C=C/c2nc3ccccn3c(=O)c2-c2ccc(C#N)cc2)c1OCC1CC1 [Example 19],87.8%,98.7%,< 500 nM
"COc1cccc(/C=C/c2nc3ccccn3c(=O)c2-c2ccc3c(c2)OCCO3)c1OC1CCCC1 [Example 38, 2-[(E)-2-(2-Cyclopentyloxy-3-methoxyphenyl)vinyl]-3-(2,3-dihydro-1,4-benzodioxin-6-yl)-4H-pyrido[1,2-a]pyrimidin-4-one]",55.5%,83.8%,< 500 nM
"COc1cccc(/C=C/c2nc3ccccn3c(=O)c2-c2ccccc2)c1OCC1CC1 [Example 16, 2-{(E)-2-[2-(Cyclopropylmethoxy)-3-methoxyphenyl]vinyl}-3-phenyl-4H-pyrido[1,2-a]-pyrimidin-4-one]",33.8%,79.8%,–
CCCCCCOc1c(/C=C/c2nc3ccccn3c(=O)c2-c2ccc(C(F)(F)F)cc2)cccc1OC [Example 13],58%,77.3%,–
"CCCCOc1c(/C=C/c2nc3ccccn3c(=O)c2-c2ccc(OC(F)(F)F)cc2)cccc1OC [Example 9, 2-[(E)-2-[2-Butoxy-3-methoxyphenyl)vinyl]-3-[4-(trifluoromethoxy)phenyl]-4H-pyrido-[1,2-a]pyrimidin-4-one]",74.6%,89%,500 to 1000 nM
"O=c1c(-c2ccc(C(F)(F)F)cc2)c(/C=C/c2cccnc2)nc2ccccn12 [Example 2, 2-{(E)-2-(Pyridin-3-yl)vinyl}-3-(4-trifluoromethyl)phenyl-4H-pyrido[1,2-a]pyrimidin-4-one]",5.7%,11.2%,–
"O=c1c(-c2ccccc2)c(/C=C/c2ccc(Cl)cc2)nc2ccccn12 [Example 1, 2-[(E)-2-(4-Chlorophenyl)vinyl]-3-phenyl-4H-pyrido[1,2-a]pyrimidin-4-one]",0.5%,19.4%,–
CCCCOc1c(/C=C/c2nc3ccccn3c(=O)c2-c2ccc(C#N)cc2)cccc1OC [Example 10],82.8%,100%,–
"COc1cccc(/C=C/c2nc3ccccn3c(=O)c2-c2ccc(C(F)(F)F)cc2)c1OC1CCCC1 [Example 23, 2-{(E)-2-[2-(Cyclopentyloxy)-3-methoxyphenyl]vinyl}-3-(4-trifluoromethyl)phenyl-4H-pyrido[1,2-a]pyrimidin-4-one]",62.8%,86.7%,500 to 1000 nM
CCCOc1c(/C=C/c2nc3ccccn3c(=O)c2-c2ccc(C(F)(F)F)cc2)cccc1OC [Example 6],71.5%,67.5%,–
"CCCCCOc1c(/C=C/c2nc3ccccn3c(=O)c2-c2ccc(C#N)cc2)cccc1OC [Example 12, 4-{2-[(E)-2-[3-Methoxy-2-pentyloxyphenyl)vinyl]-4-oxo-4H-pyrido[1,2-a]pyrimidin-3-yl}benzonitrile]",87.9%,96.5%,< 500 nM
